{"source": "patent US20050059574A1", "about": "(priority 2000, published 2005)", "key": {"[1]": {"test_system": "purified cultured cardiac myocytes", "details": "125I-T3 at 10^−8 M"}, "[2]": {"experiment": "Pharmacokinetic studies in a rodent model: serum T3 after single intramuscular bolus", "type": "in vivo, rat", "details": "rats; for Serum T3 level as % of the peak value: within 2 hours of injection"}, "[3]": {"experiment": "Serum total T3 levels after T3a bolus during cardiac resuscitation in dogs", "type": "in vivo, dog", "procedure": "Subsequent blood samples were obtained from the arterial circulation at 0.5 to 1.5 minutes after the bolus injection, and also at 15 to 20 minutes and 30 minutes, respectively.\nBefore sending the blood sample for immunoassay, in each experiment all the blood samples were collected in red-topped serum separator tubes. The tubes were centrifuged at 2500 rpm on a tabletop centrifuge for 10 minutes at 4° C. to separate the cells from the serum. The blood samples were then stored and frozen at −4° C."}, "[4]": {"details": "background statement; bound to thyroxine-binding globulin in human serum; cited from earlier work"}, "[5]": {"test_system": "dogs with electrically induced ventricular fibrillation", "experiment": "Phase Ia (methodology section): fibrillation/defibrillation in dogs with T3a or epinephrine", "type": "in vivo, dog", "details": "individual dogs", "description": "Phase 1a was dedicated towards developing the basic methodology in the initial experiments, manual chest compression (CPR) and an internal defibrillator were employed. Induction of ventricular fibrillation and defibrillation were problematic with the internal electrodes because of the size mismatch: electrodes designed for humans being used in a smaller sized animal. In later experiments, the internal system was replaced with an LV pacing catheter connected to AC current via a step-down transformer (to induce ventricular fibrillation), and a new external, “hands-off” defibrillator. The manual chest compression was replaced with a THUMPER CPR system.\nIn the experiments, T3a was given 30 seconds before defibrillation. Preferably, T3a injection was given 60 to 90 seconds after defibrillation.\nThe results section was divided into Phases Ia (n=9) and Ib (n=8). The hemodynamic data were not consistently available in Phase Ia as there was no spontaneous or induced recovery except for 3 animals. Use of T3a was limited to only 3 dogs in this phase although epinephrine was used in 5 of them. This phase was dedicated towards the development of the Phase Ib parameters.\nHVS-02 Fibrillator and Defibrillator were used in the tests. The operating instructions for the HVS-02 Fibrillator and Defibrillator can be found in the Manual for HVS-02 Fibrillator and Defibrillator.\nPhase Ia was dedicated towards developing the basic methodology. […] In 3 animals, the hemodynamic data after defibrillation were less than the pre-fibrillatory data. […] In the experiments, internal defibrillator was used for the preliminary experiments and T3a was given just before defibrillation (30 seconds). Moreover, THUMPER CPR was used in the last 2 dogs instead of manual CPR. Thumper CPR worked well and it was used for the subsequent T3a experiments of Phase Ib. Manual chest compression was maintained for another 5 minutes after defibrillation and T3a or epinephrine injections. Bolus epinephrine injection (100 μg/kg) was used in 5 random dogs."}, "[6]": {"test_system": "dogs with electrically induced ventricular fibrillation", "experiment": "Phase Ib: cardiac resuscitation of dogs after induced ventricular fibrillation (Thumper CPR, external defibrillation, T3a bolus into right ventricle)", "type": "in vivo, dog", "details": "Post T3a (15 m), individual dogs", "procedure": "All animals were fasted overnight and anesthesia was induced by intravenous sodium thiopental (Pentothal sodium 15-25 mg/kg). After intubation and ventilation by a ventilator (North American Dräger, Anesthesia and Ventilator, Model AVE-K, Serial No. 5033), anesthesia was maintained by 2% isoflurane (Isoflurane Vaporizer, R-Vapor, R-24045), and oxygen. ECG (Hewlett Packard Model No. 78346A). Oxygen saturation was monitored continuously. Preoperatively, all animals received Acepromazine maleate, 0.25-0.5 mg, I.M, lactated Ringer's solution was given intravenously (250 ml-350 ml/hr) during the procedure.\nA 8.5Fr. catheter sheath was introduced into the right femoral artery and the side arm was connected to a fluid transducer for the continuous measurement of systemic arterial blood pressure. A 7Fr. Bipolar Multipurpose A-2 Electrode Catheter, 1 Lumelec™ (Lot no. 30395908, Catalog no. 528-724, Cordis, USA) tipped with pressure transducer with 2 side holes, 2 electrodes with an open end, 125 cm long, and 0.038 inch diameter, was advanced through the catheter sheath, and placed into the left ventricle. Continuous measurement of the systemic left ventricular pressure was obtained. Analog signals from the pressure transducers were obtained using an amplifier (PM-1000, CWE Inc., Ardmore, Pa.).\nA 8.5Fr. catheter sheath was introduced into the right femoral vein and a 7Fr. MP A2, Multipurpose high flow catheter (catalog no. 527-742, Cordis, USA) with open end and side holes was placed into the right ventricle for T3a injections. Another 7Fr. catheter sheath was introduced into the left femoral artery and a 6Fr. pigtail catheter (catalog no. 527-654S, 110 cm, 155° angled) was placed into the descending aorta for the collection of aortic blood samples after T3a injections into the right ventricle. ECG (Hewlett-Packard, Model No. 78346A, Ser. No. 2320A00522) was continuously monitored. A temperature-monitoring device (T. SIN, Japan, designed for YSI series 400 thermistors), connected to the data acquisition system, was introduced into the external ears of all the animals to continuously measure body temperature.\nThe two distal ends of the 7Fr. Bipolar Multipurpose A-2 Electrode Catheter were connected to a Transformer. The electrical system can deliver 15V, 20 mA AC current through the pacing catheter system. The anesthesia was stopped. A venous blood sample from the right ventricle was obtained. Lid reflexes returned in several minutes.\nThe lid reflexes were checked by the finger method system and when frequent blinking of the lids was obtained, procedures for the ventricular fibrillation were carried out. […]\nThe force of compression necessary to achieve this baseline condition was recorded and not altered during subsequent provision of chest compressions. […]"}}, "note": "Several values for one entry are separate records, joined by “and”; a condition that tells them apart may be missing. Equal entries are not always repeated.", "data": [{"compound": "N[C@@H](Cc1cc(I)c(Oc2ccc(O)c(I)c2)c(I)c1)C(=O)O", "note": "[T3, 3,5,3′-triiodothyronine]", "values": [{"measurement": "Time to detection of T3 in the nucleus of the cell", "setting": "[1]", "result": "≤ 5", "unit": "min"}, {"measurement": "Half-life of T3 in serum, 5 μg/kg versus 100 μg/kg", "setting": "[2]; i.m.", "result": "identical"}, {"measurement": "Serum T3 level as % of peak values", "setting": "[2]; i.m., 24 hours after injection, within normal physiological range", "result": 10, "unit": "%"}, {"measurement": "Serum T3 level as % of the peak value", "setting": "[2]; i.m., high dose 100 μg/Kg", "result": 64, "unit": "%"}, {"measurement": "Serum T3 level as % of the peak value", "setting": "[2]; i.m., low dose 5 μg/Kg", "result": 90, "unit": "%"}, {"measurement": "Time to peak serum T3 values", "setting": "[2]; intramuscular, 5 μg/Kg and 100 μg/Kg", "result": "≤ 30", "unit": "min"}, {"measurement": "Time serum T3 levels were maintained at high level", "setting": "[3]; 4 μg T3/kg", "result": 30, "unit": "min"}, {"measurement": "Serum T3 levels", "setting": "[3]; 4 μg T3/kg, within 2 minutes of drug administration", "result": "greater than 9000 ng/dl"}, {"measurement": "Increase of serum T3 level over baseline", "setting": "[3]; bolus 4 μg/kg, one minute after injection, baseline 87±6 ng/dl", "result": 100, "unit": "fold"}]}, {"compound": "NC(Cc1cc(I)c(Oc2cc(I)c(O)c(I)c2)c(I)c1)C(=O)O", "note": "(stereo not shown) [T4]", "values": [{"measurement": "Half-life", "setting": "[4]", "result": "140 to 170", "unit": "h"}]}, {"compound": "CNC[C@H](O)c1ccc(O)c(O)c1", "note": "[Epi, epinephrine]", "values": [{"measurement": "Recover", "setting": "[5]; After D-Fib (+ drug)", "result": "No (2×) and Yes"}, {"measurement": "D. AoP", "setting": "[5]; Post (15 m)", "result": 76.1, "unit": "mmHg"}, {"measurement": "Recover", "setting": "[5]; Post (15 m)", "result": "No (2×) and Yes"}, {"measurement": "S. AoP", "setting": "[5]; Post (15 m)", "result": 89.3, "unit": "mmHg"}, {"measurement": "S. LVP", "setting": "[5]; Post (15 m)", "result": 110.2, "unit": "mmHg"}, {"measurement": "D. AoP", "setting": "[6]", "result": 64.0, "unit": "mmHg"}, {"measurement": "Recover", "setting": "[6]", "result": "Yes"}, {"measurement": "S. AoP", "setting": "[6]", "result": 82.7, "unit": "mmHg"}, {"measurement": "S. LVP", "setting": "[6]", "result": 103.0, "unit": "mmHg"}]}]}
